Values of other authors as cited in PubChem BioAssay AID1259409 (Chemical Carcinogenesis Research Information System (CCRIS), 2018).

System: rodent chemically induced tumor inhibition, incidence and multiplicity
Assay: CCRIS tumor inhibitor studies
Details: for tumour outcome (control, treated, inhibition, significance): Promoter: NONE USED

Compound: S=C=NCc1ccccc1
- tumour outcome (control, treated, inhibition, significance) (Carcinogen: 7,12-DIMETHYLBENZ[A]ANTHRACENE, 57-97-6, Dose [Inhibitor]: 50 MG ONCE 4 HR BEFORE DMBA TREATMENT (STUDY DURATION: 18 WK), Route [Inhibitor]: INTRAGASTRIC, Species: RAT, Strain/Sex: SPRAGUE-DAWLEY/FEMALE, Target Tissue: Type of Lesion: MAMMARY GLAND: TUMOR, Dose [Carcinogen]: 12 MG IN 1 ML OLIVE OIL AT AGE 7 WK 4 HR BEFORE AGENT TREATMENT): 100%, 14%, 86%, p<0.001
- tumour outcome (control, treated, inhibition, significance) (Carcinogen: 7,12-DIMETHYLBENZ[A]ANTHRACENE, 57-97-6, Dose [Inhibitor]: 50 MG ONCE 24 HR BEFORE DMBA TREATMENT (STUDY DURATION: 18 WK), Route [Inhibitor]: INTRAGASTRIC, Species: RAT, Strain/Sex: SPRAGUE-DAWLEY/FEMALE, Target Tissue: Type of Lesion: MAMMARY GLAND: TUMOR, Dose [Carcinogen]: 12 MG IN 1 ML OLIVE OIL AT AGE 7 WK 24 HR AFTER AGENT TREATMENT): 93%, 71%, 24%, not significant
- outcome (Carcinogen: BENZO[A]PYRENE, 50-32-8, Dose [Inhibitor]: 0, 5 UMOL IN ACETONE 4 HR PRIOR TO CARCINOGEN DOSE (STUDY DURATION: 20 WK), Route [Inhibitor]: DERMAL, Species: MOUSE, Strain/Sex: STRAIN-A/FEMALE, Target Tissue: Type of Lesion: SKIN: TUMOR, Dose [Carcinogen]: 0.1 UMOL IN ACETONE ONCE, Promoter: 12-O-TETRADECANOYLPHORBOL-13-ACETATE, 16561-29-8): 70%, 60%, 14%, not significant at 15 wk; 95%, 75%, 21%, not significant at 20 wk
- tumour outcome (control, treated, inhibition, significance) (Carcinogen: BENZO[A]PYRENE, 50-32-8, Dose [Inhibitor]: 0, 6.7 UMOL IN COTTONSEED OIL 15 MIN PRIOR TO CARCINOGEN DOSES 1/2 WK FOR 3 TREATMENTS (STUDY DURATION: 26 WK), Route [Inhibitor]: GAVAGE, Species: MOUSE, Strain/Sex: STRAIN-A/FEMALE, Target Tissue: Type of Lesion: FORESTOMACH: TUMOR, Dose [Carcinogen]: 7.9 UMOL IN COTTONSEED OIL 1/2 WK FOR 3 TREATMENTS): 95%, 95%, 0%, not significant
- tumour outcome (control, treated, inhibition, significance) (Carcinogen: BENZO[A]PYRENE, 50-32-8, Dose [Inhibitor]: 0, 6.7 UMOL IN COTTONSEED OIL 15 MIN PRIOR TO CARCINOGEN DOSES 1/2 WK FOR 3 TREATMENTS (STUDY DURATION: 26 WK), Route [Inhibitor]: GAVAGE, Species: MOUSE, Strain/Sex: STRAIN-A/FEMALE, Target Tissue: Type of Lesion: LUNG: TUMOR, Dose [Carcinogen]: 7.9 UMOL IN COTTONSEED OIL 1/2 WK FOR 3 TREATMENTS): 95%, 80%, 16%, not significant
- tumour outcome (control, treated, inhibition, significance) (Carcinogen: BENZO[A]PYRENE, 50-32-8, Dose [Inhibitor]: 5 MG/G DIET AT AGE 9 WK SIMULTANEOUSLY WITH CARCINOGEN, 3/WK FOR 6 WK (STUDY DURATION: 20 WK), Route [Inhibitor]: ORAL, Species: MOUSE, Strain/Sex: ICR/FEMALE, Target Tissue: Type of Lesion: FORESTOMACH: TUMOR, Dose [Carcinogen]: 0.3 MG/G DIET AT AGE 9 WK, 3/WK FOR 6 WK): 41%, 0%, 100%, p<0.01
- tumour outcome (control, treated, inhibition, significance) (Carcinogen: DIETHYLNITROSAMINE, 55-18-5, Dose [Inhibitor]: 0, 100 PPM IN DIET FOR DURATION OF STUDY BEGINNING 1 WK PRIOR TO CARCINOGEN DOSE (STUDY DURATION: 53 WK), Route [Inhibitor]: ORAL, Species: RAT, Strain/Sex: ACI/MALE, Target Tissue: Type of Lesion: LIVER: HEPATOCELLULAR ADENOMA, Dose [Carcinogen]: 200 MG/KG BW ONCE): 10/18 (55%), 1/17 (6%), 89%, p<0.002
- tumour outcome (control, treated, inhibition, significance) (Carcinogen: DIETHYLNITROSAMINE, 55-18-5, Dose [Inhibitor]: 0, 100 PPM IN DIET FOR DURATION OF STUDY BEGINNING 1 WK PRIOR TO CARCINOGEN DOSE (STUDY DURATION: 53 WK), Route [Inhibitor]: ORAL, Species: RAT, Strain/Sex: ACI/MALE, Target Tissue: Type of Lesion: LIVER: HEPATOCELLULAR CARCINOMA, Dose [Carcinogen]: 200 MG/KG BW ONCE): 6/18 (33%), 0/17 (0%), 100%, p<0.02
- tumour outcome (control, treated, inhibition, significance) (Carcinogen: METHYLAZOXYMETHANOL ACETATE, 592-62-1, Dose [Inhibitor]: 0, 400 PPM IN DIET FOR 4 WK BEGINNING 1 WK PRIOR TO CARCINOGEN TREATMENT (STUDY DURATION: 49 WK), Route [Inhibitor]: ORAL, Species: RAT, Strain/Sex: ACI/FEMALE, Target Tissue: Type of Lesion: COLON: ADENOMA OR CARCINOMA, Dose [Carcinogen]: 25 MG/KG BW 1/WK FOR 3 WK): 15/18 (83%), 9/19 (47%), 43%, p<0.05
- tumour outcome (control, treated, inhibition, significance) (Carcinogen: METHYLAZOXYMETHANOL ACETATE, 592-62-1, Dose [Inhibitor]: 0, 400 PPM IN DIET FOR 46 WK BEGINNING 1 WK POST CARCINOGEN TREATMENT (STUDY DURATION: 49 WK), Route [Inhibitor]: ORAL, Species: RAT, Strain/Sex: ACI/FEMALE, Target Tissue: Type of Lesion: COLON: ADENOMA OR CARCINOMA, Dose [Carcinogen]: 25 MG/KG BW 1/WK FOR 3 WK): 15/18 (83%), 17/19 (89%), -7%, not significant
- tumour outcome (control, treated, inhibition, significance) (Carcinogen: METHYLAZOXYMETHANOL ACETATE, 592-62-1, Dose [Inhibitor]: 0, 400 PPM IN DIET FOR 46 WK BEGINNING 1 WK POST CARCINOGEN TREATMENT (STUDY DURATION: 49 WK), Route [Inhibitor]: ORAL, Species: RAT, Strain/Sex: ACI/FEMALE, Target Tissue: Type of Lesion: SMALL INTESTINE: CARCINOMA, Dose [Carcinogen]: 25 MG/KG BW 1/WK FOR 3 WK): 10/18 (56%), 10/19 (53%), 5%, not significant
- tumour outcome (control, treated, inhibition, significance) (Carcinogen: N-BUTYL-N-(4-HYDROXYBUTYL)NITROSAMINE (3817-11-6), Dose [Inhibitor]: 0, 10 PPM IN THE DIET FOR 40 WK (STUDY DURATION: 40 WK), Route [Inhibitor]: ORAL, Species: RAT, Strain/Sex: F344/MALE, Target Tissue: Type of Lesion: URINARY BLADDER: CARCINOMA, Dose [Carcinogen]: 50 PPM IN DRINKING WATER FOR 40 WK): 19/20 (95%), 18/20 (90%), 5%, not significant
- tumour outcome (control, treated, inhibition, significance) (Carcinogen: N-BUTYL-N-(4-HYDROXYBUTYL)NITROSAMINE (3817-11-6), Dose [Inhibitor]: 0, 10 PPM IN THE DIET FOR 40 WK (STUDY DURATION: 40 WK), Route [Inhibitor]: ORAL, Species: RAT, Strain/Sex: F344/MALE, Target Tissue: Type of Lesion: URINARY BLADDER: PAPILLOMA, Dose [Carcinogen]: 50 PPM IN DRINKING WATER FOR 40 WK): 15/20 (75%), 11/20 (55%), 27%, not significant
- tumour outcome (control, treated, inhibition, significance) (Carcinogen: N-BUTYL-N-(4-HYDROXYBUTYL)NITROSAMINE (3817-11-6), Dose [Inhibitor]: 0, 100 PPM IN THE DIET FOR 40 WK (STUDY DURATION: 40 WK), Route [Inhibitor]: ORAL, Species: RAT, Strain/Sex: F344/MALE, Target Tissue: Type of Lesion: URINARY BLADDER: CARCINOMA, Dose [Carcinogen]: 50 PPM IN DRINKING WATER FOR 40 WK): 19/20 (95%), 15/20 (75%), 21%, not significant
- tumour outcome (control, treated, inhibition, significance) (Carcinogen: N-BUTYL-N-(4-HYDROXYBUTYL)NITROSAMINE (3817-11-6), Dose [Inhibitor]: 0, 100 PPM IN THE DIET FOR 40 WK (STUDY DURATION: 40 WK), Route [Inhibitor]: ORAL, Species: RAT, Strain/Sex: F344/MALE, Target Tissue: Type of Lesion: URINARY BLADDER: PAPILLOMA, Dose [Carcinogen]: 50 PPM IN DRINKING WATER FOR 40 WK): 15/20 (75%), 9/20 (45%), 40%, p< 0.05
- tumour outcome (control, treated, inhibition, significance) (Carcinogen: N-BUTYL-N-(4-HYDROXYBUTYL)NITROSAMINE (3817-11-6), Dose [Inhibitor]: 0, 1000 PPM IN THE DIET FOR 40 WK (STUDY DURATION: 40 WK), Route [Inhibitor]: ORAL, Species: RAT, Strain/Sex: F344/MALE, Target Tissue: Type of Lesion: URINARY BLADDER: CARCINOMA, Dose [Carcinogen]: 50 PPM IN DRINKING WATER FOR 40 WK): 19/20 (95%), 5/20 (25%), 74%, p< 0.01
- tumour outcome (control, treated, inhibition, significance) (Carcinogen: N-BUTYL-N-(4-HYDROXYBUTYL)NITROSAMINE (3817-11-6), Dose [Inhibitor]: 0, 1000 PPM IN THE DIET FOR 40 WK (STUDY DURATION: 40 WK), Route [Inhibitor]: ORAL, Species: RAT, Strain/Sex: F344/MALE, Target Tissue: Type of Lesion: URINARY BLADDER: PAPILLOMA, Dose [Carcinogen]: 50 PPM IN DRINKING WATER FOR 40 WK): 15/20 (75%), 2/20 (10%), 87%, p< 0.01
- tumour outcome (control, treated, inhibition, significance) (Carcinogen: N-NITROSOMETHYLBENZYLAMINE, 937-40-6, Dose [Inhibitor]: 0, 0.4 UMOL/G IN DIET FOR 25 WK BEGINNING 2 WK PRIOR TO CARCINOGEN TREATMENT (STUDY DURATION: 25 WK), Route [Inhibitor]: ORAL, Species: RAT, Strain/Sex: F344/MALE, Target Tissue: Type of Lesion: ESOPHAGUS: TUMOR, Dose [Carcinogen]: 0.5 MG/KG BW IN 20% DMSO 1/WK FOR 15 WK): 100%, 100%, 0%, not significant
- tumour outcome (control, treated, inhibition, significance) (Carcinogen: N-NITROSOMETHYLBENZYLAMINE, 937-40-6, Dose [Inhibitor]: 0, 1 UMOL/G IN DIET FOR 25 WK BEGINNING 2 WK PRIOR TO CARCINOGEN TREATMENT (STUDY DURATION: 25 WK), Route [Inhibitor]: ORAL, Species: RAT, Strain/Sex: F344/MALE, Target Tissue: Type of Lesion: ESOPHAGUS: TUMOR, Dose [Carcinogen]: 0.5 MG/KG BW IN 20% DMSO 1/WK FOR 15 WK): 100%, 100%, 0%, not significant
- tumour outcome (control, treated, inhibition, significance) (Carcinogen: N-NITROSOMETHYLBENZYLAMINE, 937-40-6, Dose [Inhibitor]: 0, 2.5 UMOL/G IN DIET FOR 25 WK BEGINNING 2 WK PRIOR TO CARCINOGEN TREATMENT (STUDY DURATION: 25 WK), Route [Inhibitor]: ORAL, Species: RAT, Strain/Sex: F344/MALE, Target Tissue: Type of Lesion: ESOPHAGUS: TUMOR, Dose [Carcinogen]: 0.5 MG/KG BW IN 20% DMSO 1/WK FOR 15 WK): 100%, 100%, 0%, not significant
